Measurements: paper PMC7662393, “Comprehensive Characterization of Linalool-HP-β-Cyclodextrin Inclusion Complexes” (Molecules, 2020)
≈ marks a conversion by molar mass, not a printed value. Read-outs that look alike come from different tables or passages of the source.

Legend:
[1] = Aqueous solubility of linalool (S0) from phase solubility study, ultrasound equilibrium; type: physicochemical; details: for solubility at 60 min: read-out: Recovery aqueous solubility (S0)
Procedure: (§1) The study of linalool solubility in the presence of CDs was carried out according to the method described by Higuchi and Connors in 1965 with slight modifications. CDs were dissolved in buffered solutions at different pHs: 3.5, 5.5 (100 mmol L^−1 sodium acetate buffer), 6.5, 7.0 (100 mmol L^−1 sodium phosphate buffer) and 8.5 (100 mmol L^−1 sodium borate buffer). The α- and HP-β-CDs were prepared up to 100 mmol L^−1. However, β-CDs were prepared up to 15 mmol L^−1, since this is their limit of aqueous solubility.
(§2) A saturating concentration of linalool was added to each CDs solution and they were kept in an ultrasound bath for 60 min in the dark, at 25 °C, until equilibrium was reached. Subsequently, the solutions were filtered through a 0.45 µm nylon membrane filter (Chromafil, Macherey-Nagel, Düren, Germany) to remove excess linalool.
(§3) Once filtered, the solutions were diluted with ethanol until reach ethanol 80% (solution:ethanol, 20:80, v:v) to quantify by gas chromatography-mass spectrometry (GC-MS) the linalool concentration in each solution. Phase solubility diagrams were made in triplicate.
(§4) The quantification of linalool was carried out by using a Shimadzu GC-QP 2010 (Kyoto, Japan) gas chromatographer combined with a mass spectrometer. Helium was used as carrier gas, at a flow rate of 0.5 mL min^−1. A ω-WAX 250 fused silica supelco column (30 m × 0.25 mm × 0.25 µm thickness), was used. The temperature conditions were as follows: initial temperature at 70 °C, raised to 160 °C at 4 °C min^−1, raised to 280 °C at 30 °C min^−1, and maintained finally at 280 °C for 6 min. Injector temperature was 250 °C and injector mode was Split 1:20.
(§5) The peak area of each sample was used for linalool quantification (mmol L^−1), by interpolating in the calibration curve obtained using a standard of linalool, defined by equation: Area = […] [linalool (mmol L^−1)] and (R^2 = 0.9989) for linalool concentration from 0.0 to 0.5 mmol L^−1.

[2] = Phase solubility study of linalool complexation with α-CDs; type: physicochemical
Procedure: as §1, §2, §3, §4, §5
(§6) Kc between linalool and CDs was calculated from the slope of the phase solubility profile and the solubility of linalool in aqueous solution (S0) by using Equation (1):(1) Kc (Lmol^−1)=slope/S0(1−slope)
(§7) CE is the ratio between dissolved complex and free CDs concentration. […] was calculated by using Equation (2):(2) CE=[disolved−complex]/[CDs]=S0∗Kc
(§8) The molar ratio (MR) linalool:CDs, was calculated using CE values with Equation (3). (3) linalool:CDs=1:(1+1/CE)

[3] = Phase solubility study of linalool complexation with β-CDs; type: physicochemical
Procedure: as §1, §2, §3, §4, §5, §6, §7, §8

[4] = Phase solubility study of linalool complexation with HP-β-CDs (ultrasound); type: physicochemical
Procedure: as §1, §2, §3, §4, §5, §6, §7, §8

[5] = Phase solubility of linalool with HP-β-CDs by microwave irradiation (MWI); type: physicochemical; details: pH 7.0
Procedure: The encapsulation of linalool with HP-β-CDs by using MWI was carried out following the method described by Hernández-Sánchez et al. in 2017 [32]. Aqueous solutions of HP-β-CDs (100 mL, 0–100 mmol L^−1) were irradiated with microwave (LG Grill Wavedom, LG Electronics Las Rozas, Spain), at 700 W for 30 s, at 10 s intervals, until reaching a temperature of 70 °C in the solution. Later on, linalool was added to each aqueous solution, in a molar ratio of 1:1 and then, were irradiated again for 30 s at 10 s intervals, until reaching again 70 °C. Subsequently, the samples were shaken and kept for 12 h in dark sealed vials at 25 °C, before dividing them into two groups. After that, the first group, named 24 h MWI, was filtered using 0.45 µm nylon membrane filter (Chromafil, Macherey-Nagel). The second group, named 48 h MWI, were irradiated again, until reaching 70 °C, and maintain 12 h in the dark before they were filtered through a 0.45 µm nylon filter to remove linalool excess. Once filtered, both groups of samples were diluted with ethanol (20:80, v:v) until the GC-MS quantification of the linalool. All measurements were made in triplicate.
as §4, §5

[6] = parameters: method as in doi:10.1002/ffj.3197; details: JECFA (FAO/WHO); cited from earlier work
[7] = hydroxyl group at C3; no reference or method printed; cited from earlier work
[8] = parameters: method as in PMID 25298799; details: HP-β-CDs; cited from earlier work
[9] = parameters: method as in PMID 25298799; details: RAMEB; cited from earlier work
[10] = parameters: method as in PMID 25298799; details: CRYSMEB; cited from earlier work

C=CC(C)(O)CCC=C(C)C (stereo not drawn) [linalool, 3,7-dimethyl-1,6-octadien-3-ol]
solubility at 60 min ([1]; aqueous buffer, thermodynamic from solid, pH 6.5, 25 °C): 8.16 ± 0.11 mM (≈ 1260 µg/mL) | solubility at 60 min ([1]; aqueous buffer, thermodynamic from solid, pH 7.0, 25 °C): 7.37 mM (≈ 1140 µg/mL) | Recovery aqueous solubility (S0) ([1]; pH 3.5, 25 °C): 9.34 ± 0.20 mM | solubility at 60 min ([1]; pH 5.5, 25 °C): 9.05 ± 0.16 mM (≈ 1400 µg/mL) | Recovery aqueous solubility (S0) ([1]; pH 7.0, 25 °C): 7.37 ± 0.03 mM | solubility at 60 min ([1]; pH 8.5, 25 °C): 9.33 ± 0.13 mM (≈ 1440 µg/mL) | solubility at 60 min ([1]; sodium acetate buffer, pH 3.5, 25 °C): 9.34 mM (≈ 1440 µg/mL) | Complexation efficiency (CE) ([2]; pH 3.5): 0.159 | Complexation constant (KC) ([2]; pH 3.5, 25 °C): 17 ± 6 L/mol | Complexation efficiency (CE) ([2]; pH 5.5): 0.226 | Complexation constant (KC) ([2]; pH 5.5, 25 °C): 25 ± 4 L/mol | Complexation efficiency (CE) ([2]; pH 6.5): 0.987 | Complexation constant (KC) ([2]; pH 6.5, 25 °C): 121 ± 9 L/mol | Complexation efficiency (CE) ([2]; pH 7.0): 1.090 | Complexation constant (KC) ([2]; pH 7.0, 25 °C): 148 ± 12 L/mol | Complexation efficiency (CE) ([2]; pH 8.5): 0.979 | Complexation constant (KC) ([2]; pH 8.5, 25 °C): 105 ± 8 L/mol | Complexation efficiency (CE) ([3]; pH 3.5): 0.261 | Complexation constant (KC) ([3]; pH 3.5, 25 °C): 28 ± 4 L/mol | Complexation efficiency (CE) ([3]; pH 5.5): 0.670 | Complexation constant (KC) ([3]; pH 5.5, 25 °C): 74 ± 5 L/mol | Complexation efficiency (CE) ([3]; pH 6.5): 0.743 | Complexation constant (KC) ([3]; pH 6.5, 25 °C): 91 ± 4 L/mol | Complexation efficiency (CE) ([3]; pH 7.0): 1.776 | Complexation constant (KC) ([3]; pH 7.0, 25 °C): 241 ± 26 L/mol | Complexation efficiency (CE) ([3]; pH 8.5): 0.149 | Complexation constant (KC) ([3]; pH 8.5, 25 °C): 16 ± 5 L/mol | Linalool concentration solved ([4]; 100 mM HP-β-CDs, US, pH 7.0): 96.72 mM | Linalool concentration solved, US relative to MWI ([4]; 100 mM HP-β-CDs, pH 7.0): 7 fold | Increase in solubility of linalool ([4]; HP-β-CDs, US as energy source, volume 100 mL, pH 7.0): 13.1 fold | Complexation efficiency (CE) ([4]; HP-β-CDs, pH 3.5): 0.411 | Complexation constant (KC) ([4]; HP-β-CDs, pH 3.5, 25 °C): 44 ± 6 L/mol | Complexation efficiency (CE) ([4]; HP-β-CDs, pH 5.5): 0.443 | Complexation constant (KC) ([4]; HP-β-CDs, pH 5.5, 25 °C): 49 ± 7 L/mol | Complexation efficiency (CE) ([4]; HP-β-CDs, pH 6.5): 1.836 | Complexation constant (KC) ([4]; HP-β-CDs, pH 6.5, 25 °C): 225 ± 14 L/mol | Complexation efficiency (CE) ([4]; HP-β-CDs, pH 7.0): 6.788 | Complexation constant (KC) ([4]; HP-β-CDs, pH 7.0, 25 °C): 921 ± 21 L/mol | Complexation efficiency (CE) ([4]; HP-β-CDs, pH 8.5): 5.215 | Complexation constant (KC) ([4]; HP-β-CDs, pH 8.5, 25 °C): 559 ± 17 L/mol | KC value for HP-β-CDs relative to that for β-CDs ([4]; neutral pH): 4 fold | Linalool concentration solved ([5]; 100 mM HP-β-CDs, MWI): 13.61 mM | Increase in solubility of linalool ([5]; HP-β-CDs, MWI as energy source, volume 100 mL): 18.2 fold | solubility thermodynamic ([5]; aqueous solution without HP-β-CDs (S0), 25 °C, water, thermodynamic from solid, MWI): 0.75 mM (≈ 116 µg/mL) | Allowable daily intake (ADI) [6]: 0–0.5 mg kg^−1 of body weight/day | pKa [7]: 18.46

C=CCc1ccc(O)c(OC)c1 [eugenol]
Complexation efficiency (CE) [8]: 2.81

COc1cc(/C=C/C(=O)O)ccc1O [ferulic acid]
Complexation efficiency (CE) [9]: 1.79

O=C(O)/C=C/c1ccc(O)cc1 [coumaric acid]
Complexation efficiency (CE) [8]: 2.30 | Complexation efficiency (CE) [9]: 2.57 | Complexation efficiency (CE) [10]: 1.89
